For orientation: ED50 means the dose at which the effect has come halfway, by size or by number of responders. By LD50 is commonly meant the dose at which mortality reaches 50%. Low readings indicate greater toxicity, high ones lower toxicity. By melting point is commonly meant the temperature, or range, at which the solid turns liquid.

Seven compounds from patent US6500819B2, “Bicyclolactam compounds, use thereof and intermediates for preparing thereof” (Taiho Pharmaceutical Company Limited, priority 1994, dated 2002) can be followed below.

Series [1] deals with Wistar rats. The series is described as follows: Anticonflict test (first part, Test Example 1). The class given is in vivo. The following applies: for Frequency of water drinking behavior: 1 h before test, value relative to control = 100; for Anxiolytic effect in the anticonflict test (in words): oral, compounds at doses of 0.001 to 1.0 mg/kg. The protocol:
(§1) Wistar rats (males weighing 140 to 160 g) were used for experiment in groups of 11 to 14.
The test compound, diazepam or buspirone was suspended in a 0.5 % sodiumn carboxymethyl cellulose solution, and the suspension was orally given to the animal in a volume of 5 mnl/kg one hour before the start of experiment.
With reference to a method described in “Process in Anxiolytics and Antidepresants,” ediled by Showa Ueki and Tatsuo Furukawa, Ishiyaku Shuppansha, 56-59 (1981) , the agents were tested using experimental boxes having a grid floor and a metal drinking tube in the floor. No water was supplied to the rats for 48 hours before the experiment. Upon lapse of first 24 hours, each group of rats were placed into the experimental box, permitted access to water for 30 seconds and caused to recognize the metal drinking tube. Upon lapse of further 24 hours with access to water prevented, the rats were placed into the box again and permitted access to water on condition that an electric current was passed between the metal drinking tube and the grid to give an electroshock for every 20 times of water drinking behavior to measure the frequency of water drinking behavior for 3 minutes.
The frequency is expessed by a value relative to the frequency of the control which is taken as 100.

Series [2] deals with Wistar rats. Briefly: Elevated plus maze test. It is filed as in vivo. The following applies: for Ratio of entries into open arm: 1 h before test, relative to control = 100. The protocol: Wistar rats (males weighing 170 to 220 g) were used for experiment in groups of 4 to 9.
The test compound, diazepam or buspirone was suspended in a 0.5 %) sodium carboxymethyl cellulose solution, and the suspension was orally given to the animal in a volume of 5 ml/kg one hour before the start of experiment.
The test was conducted using an experimental device, Model BTA-2, Behavior Analysis System (product of Muromachi Kikai Co., Ltd.) with reference to a method described in Psychopharmacology, 99, 48˜53(1989). […] Each group of rats orally given the test drug were placed in the center square, and the behavior of the animals was recorded for 5 minutes using a behavior analyzer. The ratio of the number of entries into the open arm to the number of entries into all the arms was determined for evaluating the anxiolytic effect.
The ratio of entries into the open arm is expressed by a value relative to the ratio attained by the control which is taken as 100.

For series [3], the system named is ddY mice. The series is described as follows: Muscle relaxant effect (traction method), first part. The following applies: mouse, in vivo, po, 300 mg/kg. The protocol:
(§2) Muscle Relaxant Effect (Traction Method)
(§3) Compound 3, Compound 13, diazepam or buspirone was suspended in a 0.5 % sodium carboxymethyl cellulose solution, and the suspension was orally administered to 3- to 4-week-old male ddY mice (in groups of 5) in a volume of 10 ml/kg one hour before the start of experiment.
(§4) With reference to a method described in Japan. J. Pharmacol., 49. 337˜349(1989), the foreleg of the mouse was hung on a horizontal wire, having a diameter of 1.2 mm and fixed at a level of 30 cm, three times consecutively. […] Thus, ED5 0 was determined for evaluation. […] Diazepam and buspirone were 2.2 mg/kg and 427.8 mg/kg, respectively, in ED5 0.

For series [4], the system named is ddY mice. Briefly: Sedative effect (spontaneous locomotor activity), first part. Particulars: mouse, in vivo, po, 300 mg/kg. The protocol: Sedative Effect (Spontaneous Locomotor Activity)
as §3
The test was conducted with reference to a method described in “Evaluation of Medicinal Efficacies (1), Pharmacological Test Method (1), Basic Lectures on Development of Pharmaceuticals,” 50˜54(1971). More specifically, the group of mice were given the test drug and thereafter measured the amount of spontaneous locomotor activity for 10 minutes per mouse rising Animex MK-110 (product of Muromachi Kikai Co., Ltd.).

Series [5] is described as follows: in vivo. The following applies: male, ddY, mouse, in vivo. The protocol:
(§5) Effect On Central Nervous System Depressant
a. Pentobarbital Anesthetic Method
Compound 3, Compound 13, diazepam or buspirone was suspended in a 0.5 % sodium carboxymethyl cellulose solution, and the suspension was orally administered to 3- to 4-week-old male ddY mice (in groups of 5 to 10) in a volume of 10 ml/kg one hour before the start of experiment.
The test was conducted with reference to a method described in “Evaluation of Medicinal Efficacies (1), Pharmacological Test Method (1), Basic lectures on Development of Pharmaceuticals,” 144˜145(1971). More specifically, the group of mice were intraperitoneally given pentobarbital at a dose of 40 mg/kg and checked for sleeping time.

Series [6] relates to ddY mice. The series is described as follows: Effect on central nervous system depressant: ethanol enhancing method, first part. The following applies: mouse, in vivo, po, 300 mg/kg. The method, then:
as §5
b. Ethanol Enhancing Method
(§6) Compound 3, Compound 13, diazepam or buspirone was suspended in a 0.5 % sodium carboxymethyl cellulose solution, and the suspension was orally administered to 3- to 4-week-old male ddY mice (in groups of 6) in a volume of 10 ml/kg one hour before the start of experiment.
The test was conducted with reference to a method described in Japan. J. Pharmacol., 49, 337˜349(1989). More specifically, the group of mice were intraperitoneally given 25 % ethanol at a dose of 20 ml/kg and checked for the time interval between loss and recovery of the righting reflex.

The subject of series [7] is ddY mice. Briefly: Anticonvulsant effect (pentylenetetrazol-induced convulsion method), first part. It is filed as in vivo. The following applies: oral, dose of 300 mg/kg. The method, then: Anticonvulsant Effect (Pentylenetetrazol-Induced Convulsion Method)
as §6
The test was conducted with reference to a method described in “Evaluation of Medicinal Efficacies (1), Pharmacological Test Method (1), Basic lectures on Development of Pharmaceuticals,” 167˜172(1971).

Series [8] can be described thus: Acute toxicity test (LD50), first part. The class given is in vivo. The following applies: mouse, in vivo; oral, male ddY mice, observed for 3 days.
In series [9] the test system is ddY mice. The series is described as follows: Muscle relaxant effect (traction method), second part. The protocol:
as §2
(§7) Compound 1′a-1, the comparison compound, diazepam or buspirone was suspended in a 0.5% sodium carboxymethyl cellulose solution, and the suspension was orally administered to 3- to 4-week-old male ddY mice (in groups of 5) in a volume of 10 ml/kg one hour before the start of experiment.
as §4

The subject of series [10] is ddY mice. The series is described as follows: Sedative effect (spontaneous locomotor activity), second part. The method, then: Sedative Effect (Spontaneous locomotor activity)
as §7
The test was conducted with reference to a method described in “Evaluation of Medicinal Efficacies (1), Pharmacological Test Method (I), Basic Lectures on Development of Pharmaceuticals,” 50˜54(1971). More specifically, the group of mice were given the test drug and thereafter measured the amount of spontaneous locomotor activity for 10 minutes per mouse using Animex MK-110 (Muromachi Kikai Co., Ltd.).

Series [11] has as its system ddY mice. The series is described as follows: Effect on central nervous system depressant (ethanol enhancing method), second part. The protocol: Effect on central nervous system depressant (Ethanol enhancing method)
Compound 1′a-1, the comparison compound, diazepam or buspirone was suspended in a 0.5% sodium carboxymethyl cellulose solution, and the suspension was orally administered to 3- to 4-week-old male ddY mice (in groups of 6) in a volume of 10 ml/kg one hour before the start of experiment.
The test was conducted with reference to a method described in Japan. J. Pharmacol., 49, 337˜349(1989). More specifically, the group of mice were intraperitoneally given 25% ethanol at a dose of 20 ml/kg and checked for the time interval between loss and recovery of the righting reflex.

Series [12] concerns ddY mice. Briefly: Anticonvulsant effect (pentylenetetrazol-induced convulsion method), second part. The class given is in vivo. The following applies: for Anticonvulsant effect (in words): oral, dose of 300 mg/kg. The method, then: Anticonvulsant Effect (Pentylenetetrazol-induced Convulsion Method)
Compound 1′a-1, the comparison compound, diazepam or j buspirone was suspended, in a 0.5% sodium carboxymethyl cellulose solution, and the suspension was orally administered to 3- to 4-week-old maple ddY mice (in groups of 6) in a volume of 10 ml/kg one hour before the start of experiment.
The test was conducted with reference to a method described in “Evaluation of Medicinal Efficacies (1), Pharmacological Test Method (I), Basic Lectures on Development of Pharmaceuticals,” 167˜172(1971).

Series [13] concerns ddY mice. The series is described as follows: Acute toxicity test (number of deaths), second part. The class given is in vivo. Particulars: 6 mice, observed for 3 days.
Series [14] relates to Wistar rats. Briefly: Anticonflict test (second part, relieving rate of anxiety). It is filed as in vivo. The following applies: oral, dose of 1.0 mg/kg. The method, then: as §1
No water was supplied to the rats for 48 hours before the experiment. Upon lapse of first 24 hours, each group of rats were placed into the experimental box, permitted access to water for 30 seconds and caused to recognize the metal drinking tube. Upon lapse of further 24 hours with access to water prevented, the rats were placed into the box again and permitted access to water on condition that an electric current was passed between the metal drinking tube and the grid to give an electroshock for every 20 times of water drinking behavior to measure the frequency of water drinking behavior for 3 minutes. Anxiolytic effect was evaluated as relieving rate of anxiety as calculated by the following equation.

Regarding `COc1ccc(C(=O)N2C(=O)CCC3CCCC32)cc1` (centres unmarked) [Compound 3, 2-(4-methoxybenzoyl)-2-azabicyclo[4.3.0]nonane-3-one], the Frequency of water drinking behavior came to 126% in series [1] (dose 0.001 mg/kg oral), 162% in series [1] (dose 0.01 mg/kg oral), 164% in [1] (dose 0.1 mg/kg oral) and 166% in [1] (dose 1.0 mg/kg oral). Moreover, in series [1], the “Anxiolytic effect in the anticonflict test (in words)” value is listed as “increase in the frequency of water drinking behavior”. Besides, the results for the “Ratio of entries into open arm” value in series [2] (dose 0.001 oral), in [2] (dose 0.01 oral) and in series [2] (dose 0.1 oral) were 195, 219 and 248, respectively. Also, the “Anxiolytic effect in the elevated plus maze (in words)” value in series [2] (oral, dose of 0.001 mg/kg or greater) was “increase in the number of entries into the open arm”. Further, the “Muscle relaxant effect (in words)” value in series [3] was “no muscle relaxant effect”. Besides, the “Sedative effect (in words)” value in [4] is “no sedative effect”. Also, the ED50 at 1 h in [5] is no less than 300 mg/kg. Besides, the “Ethanol enhancing effect (in words)” value in series [6] was “no ethanol enhancing effect”. In series [7], the “Anticonvulsant effect (in words)” value is “no anticonvtilsant effect”. Besides, the median lethal dose (LD50) at 3 days in [8] was greater than 2000 mg/kg.
On to `COc1ccc(C(=O)N2C(=O)CC3CCCCC32)cc1` (centres unmarked) [Compound 11, 7-(4-methoxybenzoyl)-7-azabicyclo[4.3.0]nonane-8-one], for which, in series [1] (dose 1.0 mg/kg oral), the Frequency of water drinking behavior was 133%. For the same compound, in series [1], the “Anxiolytic effect in the anticonflict test (in words)” value is recorded as “increase in the frequency of water drinking behavior”. In series [8], this compound gave an LD50 at 3 days greater than 2000 mg/kg.
With `O=C1CC2CCCCC2N1` (centres unmarked) [Comparison Compound, 2-azabicyclo[3.4.0]nonane-2-one], the “Muscle relaxant effect (in words)” value in series [9] (oral, dose of 300 mg/kg) is recorded as “no muscle relaxant effect”. Further, in series [10] (oral, dose of 300 mg/kg), the “Sedative effect (in words)” value was “no sedative effect”. Besides, the “Ethanol enhancing effect (in words)” value in series [11] (oral, dose of 300 mg/kg) is “no ethanol enhancing effect”. Also, the “Anticonvulsant effect (in words)” value in series [12] is “no anticonvulsant effect”.
In the case of `COc1ccc(C(=O)N2C(=O)CC[C@H]3[C@H](O)CC[C@H]32)cc1` (racemic) [Compound 1′a-1, (1RS, 6RS, 7RS)-7-hydroxy-2-(4-methoxybenzoyl)-2-azabicyclo-[4.3.0]nonan-3-one], the “Muscle relaxant effect (in words)” value in series [9] (mouse, in vivo, po, 300 mg/kg) was “no muscle relaxant effect”. For the same compound, the “Sedative effect (in words)” value in series [10] (mouse, in vivo, po, 300 mg/kg) was “no sedative effect”. Further, the “Ethanol enhancing effect (in words)” value in series [11] (mouse, in vivo, po, 300 mg/kg) is on record as “no ethanol enhancing effect”. The “Anticonvulsant effect (in words)” value in [12] is “no anticonvulsant effect”. Moreover, the results for the Number of death in series [13] (dose 2000 mg/kg oral) and in series [13] (dose 3000 mg/kg oral) were 0 and 2, respectively.
In [1] (dose 1.0 mg/kg oral), `O=C1CC2(CCCC2)CC(=O)N1CCCCN1CCN(c2ncccn2)CC1` [Buspirone, buspirone, reference compound] yielded a Frequency of water drinking behavior of 103%. For the same compound, the “Anxiolytic effect in the anticonflict test (in words)” value in [1] and in [14] was “almost ineffective” throughout. In addition, the “Ratio of entries into open arm” value is 98 in series [2] (dose 1.0 oral) and 93 in [2] (dose 10.0 oral). Moreover, in series [10] (male, ddY, mouse, in vivo, po, 1 h), the “ED6O, sedative effect (spontaneous locomotor activity up to 50% of control)” value is recorded as 149.7 mg/kg. In series [12] (Mus musculus, 1 h, read-out: ED50, anticonvulsant effect (no death within 60 minutes)), the ED50 is no less than 300 mg/kg.
`COc1ccc(C(=O)N2C(=O)CCC3CCCCC32)cc1` (centres unmarked) [Compound 1, 2-(4-methoxybenzoyl)-2-azabicyclo[4.4.0)decane-3-one]: the Frequency of water drinking behavior is 138% in series [1] (dose 0.01 mg/kg oral), 140% in series [1] (dose 0.1 mg/kg oral) and 122% in [1] (dose 1.0 mg/kg oral). Besides, the “Anxiolytic effect in the anticonflict test (in words)” value in series [1] is reported as “increase in the frequency of water drinking behavior”. In [8], this compound gave an LD50 at 3 days greater than 2000 mg/kg.
Compound `COc1ccc(C(=O)N2C(=O)CC[C@@H]3[C@H]2CC[C@H]3OCc2ccccc2)cc1` (racemic) [Compound 4a-1, (1RS, 6RS, 7RS)-7-benzyloxy-2-(4-methoxybenzoyl)-2-azabicyclo[4.3.0]nonan-3-one] had a melting point of 109.5 °C.
